Measurements published in ChEMBL document CHEMBL1201862, “PubChem BioAssay data set” (2004).
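In this assay, cells in 96-well plates receive the compound at five concentrations for 48 hours. Endpoints are linearly interpolated between the surrounding concentrations. GI50 marks 50% less growth.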 Calls of active or inactive are those of the source. No stated cut-off is given here; in the data, active = GI50 up to about 1.1 µM and inactive = higher.

Legend:
Assay in all cases: NCI anticancer screen, dose series, 48 h
[1] = system: KM-20L2
[2] = system: SR
[3] = system: RPMI-8226
[4] = system: SF-268
[5] = system: COLO 205
[6] = system: A549
[7] = system: MOLT-4
[8] = system: SK-MEL-5
[9] = system: HCC 2998
[10] = system: NCI-H460
[11] = system: DMS-114
[12] = system: DMS-273
[13] = system: SNB-78
[14] = system: XF498
[15] = system: NCI/ADR-RES
[16] = system: MCF7
[17] = system: LXFL 529
[18] = system: DU-145
[19] = system: T47D
[20] = system: MDA-N

SMILES	GI50 [1]	GI50 [2]	GI50 [3]	GI50 [4]	GI50 [5]	GI50 [6]	GI50 [7]	GI50 [8]	GI50 [9]	GI50 [10]	GI50 [11]	GI50 [12]	GI50 [13]	GI50 [14]	GI50 [15]	GI50 [16]	GI50 [17]	GI50 [18]	GI50 [19]	GI50 [20]
CN(C)/N=C(/c1nc2ccc(Cl)cc2nc1O)C(O)c1ccc(C(O)/C(=N\N(C)C)c2nc3ccc(Cl)cc3nc2O)cc1 (stereo not given)	84.9 µM (inactive)	38 µM (inactive)	14.1 µM (inactive)	> 100 µM (inactive)	> 100 µM (inactive)	> 100 µM (inactive)	52.4 µM (inactive)	> 100 µM (inactive)	> 100 µM (inactive)	> 100 µM (inactive)	53.7 µM (inactive)	–	–	–	–	–	–	–	–	–
O=C1N(C2CCCCC2)CC12CCCCC2	> 100 µM (inactive)	–	> 100 µM (inactive)	> 100 µM (inactive)	> 100 µM (inactive)	> 100 µM (inactive)	> 100 µM (inactive)	> 100 µM (inactive)	> 100 µM (inactive)	> 100 µM (inactive)	> 100 µM (inactive)	> 100 µM (inactive)	> 100 µM (inactive)	> 100 µM (inactive)	–	–	–	–	–	–
Cc1ccc(N2Cc3c(ccc4ccccc34)OP2(=O)Oc2ccc(Cl)c(C)c2)cc1 (stereo not given)	> 100 µM (inactive)	–	10 µM (inactive)	> 100 µM (inactive)	> 100 µM (inactive)	> 94.6 µM (inactive)	14.2 µM (inactive)	> 100 µM (inactive)	> 100 µM (inactive)	67.5 µM (inactive)	> 67.1 µM (inactive)	> 77.8 µM (inactive)	> 100 µM (inactive)	> 100 µM (inactive)	> 78.7 µM (inactive)	18.4 µM (inactive)	–	–	–	–
CC(=O)OC1/C=C(\C)C(OC(C)=O)C/C=C(/C)CCC2C(/C=C/C1=O)C2(C)C (stereo not given)	> 100 µM (inactive)	–	–	> 100 µM (inactive)	> 100 µM (inactive)	> 100 µM (inactive)	> 100 µM (inactive)	92.9 µM (inactive)	> 100 µM (inactive)	> 100 µM (inactive)	–	–	> 100 µM (inactive)	35.7 µM (inactive)	–	–	> 100 µM (inactive)	–	–	–
C(=C\c1csnn1)/c1cccnc1	> 100 µM (inactive)	–	> 100 µM (inactive)	> 100 µM (inactive)	> 100 µM (inactive)	> 100 µM (inactive)	> 100 µM (inactive)	–	> 100 µM (inactive)	> 100 µM (inactive)	> 100 µM (inactive)	–	> 100 µM (inactive)	> 100 µM (inactive)	–	–	75.7 µM (inactive)	–	–	–
COc1ccc(/N=C\c2cc(OC)c(OC)c(OC)c2)cc1	> 100 µM (inactive)	–	18.7 µM (inactive)	> 100 µM (inactive)	–	> 100 µM (inactive)	> 100 µM (inactive)	> 100 µM (inactive)	–	85.9 µM (inactive)	57.4 µM (inactive)	–	> 100 µM (inactive)	> 100 µM (inactive)	–	–	51.6 µM (inactive)	–	–	–
O=c1c2ccccc2nc(-c2ccc(Br)cc2)n1NC1OC(CO)C(O)C(O)C1O (stereo not given)	> 100 µM (inactive)	–	72.9 µM (inactive)	69.5 µM (inactive)	59.8 µM (inactive)	> 100 µM (inactive)	31.6 µM (inactive)	75.9 µM (inactive)	82.4 µM (inactive)	> 100 µM (inactive)	96.6 µM (inactive)	> 100 µM (inactive)	> 100 µM (inactive)	–	–	–	45.1 µM (inactive)	–	–	–
COc1cccc(/C=C2\C(=O)N(C(=O)Cc3ccccc3)N=C2C)c1	–	> 100 µM (inactive)	> 100 µM (inactive)	> 100 µM (inactive)	> 100 µM (inactive)	> 100 µM (inactive)	> 100 µM (inactive)	> 100 µM (inactive)	> 100 µM (inactive)	> 10 µM (inactive)	> 100 µM (inactive)	> 100 µM (inactive)	> 100 µM (inactive)	> 100 µM (inactive)	–	–	–	–	–	–
C=C1CC(C)(COc2ccc3c(C)c(C)c(=O)oc3c2C)OC1=O (stereo not given)	–	0.995 µM (active)	0.594 µM (active)	4.15 µM (inactive)	1.06 µM (active)	7.67 µM (inactive)	1.08 µM (active)	1.68 µM (inactive)	1.76 µM (inactive)	5.33 µM (inactive)	–	–	–	–	2.46 µM (inactive)	1.29 µM (inactive)	–	2.51 µM (inactive)	1.28 µM (inactive)	1.77 µM (inactive)
C#CCN1C(=O)CN2C(Cl)(Cl)C2(c2ccccc2)c2cc(Cl)ccc21 (stereo not given)	33.3 µM (inactive)	40.3 µM (inactive)	70.5 µM (inactive)	82 µM (inactive)	54.5 µM (inactive)	–	25.1 µM (inactive)	51.3 µM (inactive)	31.2 µM (inactive)	54.8 µM (inactive)	51.5 µM (inactive)	41.7 µM (inactive)	–	–	–	–	> 100 µM (inactive)	–	–	–
COC(=O)c1ccc(NC(=O)c2cc(OC)c(OC)c(OC)c2)cc1	1.44 µM (inactive)	1.36 µM (inactive)	–	8.05 µM (inactive)	0.211 µM (active)	3.38 µM (inactive)	3.93 µM (inactive)	0.195 µM (active)	1.99 µM (inactive)	2.23 µM (inactive)	0.305 µM (active)	0.327 µM (active)	–	–	–	–	1.64 µM (inactive)	–	–	–
O=c1[nH]nc(-c2ccccc2)n1/N=C/c1ccccc1Cl	–	30.3 µM (inactive)	21.1 µM (inactive)	53.6 µM (inactive)	37.1 µM (inactive)	34.1 µM (inactive)	22.4 µM (inactive)	18.6 µM (inactive)	36.2 µM (inactive)	13 µM (inactive)	–	–	–	–	19.8 µM (inactive)	31.8 µM (inactive)	–	41.3 µM (inactive)	24.8 µM (inactive)	33.1 µM (inactive)
CC(C)Oc1cccc(N2C(n3ccnc3)=Nc3ccncc3S2(=O)=O)c1	–	3.78 µM (inactive)	3 µM (inactive)	16.3 µM (inactive)	10.2 µM (inactive)	20.4 µM (inactive)	4.3 µM (inactive)	13.2 µM (inactive)	16.9 µM (inactive)	18.8 µM (inactive)	–	–	–	–	21 µM (inactive)	10.1 µM (inactive)	–	12.2 µM (inactive)	13.1 µM (inactive)	12.8 µM (inactive)
C=Cc1cnc([N+](=O)[O-])n1C	–	20.7 µM (inactive)	40.1 µM (inactive)	46.7 µM (inactive)	46.5 µM (inactive)	56 µM (inactive)	53.8 µM (inactive)	83.2 µM (inactive)	42.7 µM (inactive)	56.8 µM (inactive)	–	–	–	–	> 100 µM (inactive)	59 µM (inactive)	–	37.1 µM (inactive)	46.5 µM (inactive)	40 µM (inactive)
CSc1nc2nc(C)c(C)nc2c(=O)[nH]1	> 100 µM (inactive)	> 100 µM (inactive)	> 100 µM (inactive)	> 100 µM (inactive)	> 100 µM (inactive)	> 100 µM (inactive)	51.2 µM (inactive)	> 100 µM (inactive)	> 100 µM (inactive)	> 100 µM (inactive)	> 100 µM (inactive)	> 100 µM (inactive)	–	> 100 µM (inactive)	–	–	> 100 µM (inactive)	–	–	–
CCOC(=O)CC[C@H](NC(=O)c1nc[nH]c1/N=N/N(C)C)C(=O)OCC	–	–	> 100 µM (inactive)	> 100 µM (inactive)	> 100 µM (inactive)	> 100 µM (inactive)	> 100 µM (inactive)	> 100 µM (inactive)	> 100 µM (inactive)	> 100 µM (inactive)	> 100 µM (inactive)	> 100 µM (inactive)	–	15.3 µM (inactive)	–	–	> 100 µM (inactive)	–	–	–
O=C(O)CNS(=O)(=O)c1ccc(NC(=O)c2ccc(F)cc2)cc1	> 100 µM (inactive)	–	> 100 µM (inactive)	> 100 µM (inactive)	> 100 µM (inactive)	> 100 µM (inactive)	> 100 µM (inactive)	> 100 µM (inactive)	> 100 µM (inactive)	> 100 µM (inactive)	–	> 100 µM (inactive)	–	> 100 µM (inactive)	–	–	> 100 µM (inactive)	–	–	–
O=C1NC2(CCCCC2)C2CCCCC(O)C12 (stereo not given)	> 100 µM (inactive)	> 100 µM (inactive)	> 100 µM (inactive)	> 100 µM (inactive)	> 100 µM (inactive)	> 100 µM (inactive)	> 100 µM (inactive)	–	> 100 µM (inactive)	> 100 µM (inactive)	> 100 µM (inactive)	> 100 µM (inactive)	> 100 µM (inactive)	–	–	–	> 100 µM (inactive)	–	–	–
Cc1nc2n(c1/C=C1/C(=O)Nc3cccc(Cl)c31)CCS2	–	> 100 µM (inactive)	> 100 µM (inactive)	19.5 µM (inactive)	> 100 µM (inactive)	56.1 µM (inactive)	35.2 µM (inactive)	55.1 µM (inactive)	> 100 µM (inactive)	> 100 µM (inactive)	–	–	–	–	31.1 µM (inactive)	14.2 µM (inactive)	–	48.1 µM (inactive)	15.1 µM (inactive)	57.9 µM (inactive)
CCCCCCCC(=O)OCC1OC(n2cc(F)c(=O)[nH]c2=O)C(NC(=O)OCc2ccccc2)C(OC(=O)CCCCCCC)C1O (stereo not given)	34.7 µM (inactive)	16.7 µM (inactive)	16.6 µM (inactive)	29 µM (inactive)	26 µM (inactive)	25.1 µM (inactive)	9.93 µM (inactive)	0.309 µM (active)	35.2 µM (inactive)	35.5 µM (inactive)	24 µM (inactive)	15.3 µM (inactive)	41.9 µM (inactive)	–	–	–	21.3 µM (inactive)	–	–	–
COC(=O)c1cc2c(s1)C(=O)c1ccccc1-2	> 100 µM (inactive)	–	–	> 100 µM (inactive)	> 100 µM (inactive)	> 100 µM (inactive)	> 100 µM (inactive)	> 100 µM (inactive)	> 100 µM (inactive)	> 100 µM (inactive)	> 100 µM (inactive)	> 100 µM (inactive)	> 100 µM (inactive)	–	–	–	> 100 µM (inactive)	–	–	–
